Source: article PMC4171615, “Discovery of selective inhibitors of Glutaminase-2, which inhibit mTORC1, activate autophagy and inhibit proliferation in cancer cells” (Oncotarget, 2014)
Numbering of substitutions follows the chain as printed.

Key:
[1] = target: T1, KGA_F318Y/F322S (Homo sapiens, UniProt O94925, F318Y/F322S); experiment: Glutaminase activity assay, KGA mutant F318Y/F322S; type: biochemical
T1 construct: a KGA cDNA fragment of 1644 bp (residues Leu123-Leu669); His-tag (N); made in house; host or cells: Escherichia coli
T1 sequence (O94925 123-669 F318Y/F322S): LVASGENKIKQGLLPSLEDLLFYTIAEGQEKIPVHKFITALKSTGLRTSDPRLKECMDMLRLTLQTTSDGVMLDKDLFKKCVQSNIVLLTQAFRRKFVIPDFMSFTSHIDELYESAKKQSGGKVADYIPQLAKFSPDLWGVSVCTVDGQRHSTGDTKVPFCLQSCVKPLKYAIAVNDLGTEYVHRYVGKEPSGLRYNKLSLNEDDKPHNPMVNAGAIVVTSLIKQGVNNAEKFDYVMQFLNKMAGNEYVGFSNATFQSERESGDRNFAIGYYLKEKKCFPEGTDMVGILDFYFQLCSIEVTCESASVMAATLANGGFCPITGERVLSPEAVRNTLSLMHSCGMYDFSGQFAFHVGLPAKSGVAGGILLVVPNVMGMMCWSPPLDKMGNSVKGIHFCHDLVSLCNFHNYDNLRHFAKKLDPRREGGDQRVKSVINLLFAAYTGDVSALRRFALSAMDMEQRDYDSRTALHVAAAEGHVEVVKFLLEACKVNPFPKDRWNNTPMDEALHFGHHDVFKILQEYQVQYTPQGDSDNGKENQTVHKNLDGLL
Method: (§1) Human glutaminase activity was measured using a two-step assay as described previously. A microtiter assay format was used to facilitate the collection of multiple data points. […] Samples were incubated at 25°C for 10 min and then 10 μl of 200 mM glutamine were added to the reaction mix. After adding glutamine, the reactions were incubated at 37°C for 60 min and then quenched by the addition of 10 μl of 0.6 M HCl. Subsequently, 100 μl of a second reaction mixture (3.7 units of purified bovine liver glutamate dehydrogenase, 160 mM Tris/acetate [pH 9.4], 400 mM hydrazine, 5 mM ADP and 2 mM NAD^+) was added to the stopped first reaction mixture and incubated for 30 min at 25°C. The absorbance at 340 nm was measured using a Wallac Victor2V plate reader (PerkinElmer), fitted with a 340 nm excitation filter. Sample absorbance was measured against a blank, containing no human glutaminase.
(§2) Site-directed mutagenesis was performed on the pET28a(+)-GAB or pET28a(+)-KGA plasmids using PfuUltra II Fusion HS DNA polymerase (Agilent Technologies) to create the GAB and KGA mutants. The deep view program (Version 3.7) of the Swiss-MODEL server was used to generate the three dimensional structure of homologous modeled GAB. Using the integrated sequence alignment tools and structural superimposition algorithms, the target sequence was mapped on the modeling templates.

[2] = target: T2, KGA_Y394L (Homo sapiens, UniProt O94925, Y394L); experiment: Glutaminase activity assay, KGA mutant Y394L; type: biochemical
T2 construct: a KGA cDNA fragment of 1644 bp (residues Leu123-Leu669); His-tag (N); made in house; host or cells: Escherichia coli
T2 sequence (O94925 123-669 Y394L): T1 sequence (O94925 123-669 F318Y/F322S) with Y196F, S200F, Y272L
Method: as §1, §2

- IC50 [1]: 2400 nM
- IC50 [2]: 1400 ± 200 nM
Compound: CCCCCCCCCCCCCC(CC1=CC(=O)C=C(OC)C1=O)OC(C)=O (centres unmarked) [AV-1]
